{"source": "patent US10913757B2", "about": "“Hydroxycinnamic derivatives, methods and uses thereof” (UNIVERSIDADE DO PORTO, priority 2016, dated 2021)", "key": {"[1]": {"assay": "Iron (II) chelating properties, ferrozine assay", "type": "biochemical", "settings": "100 μM, EDTA=100%, FIG. 2", "experimental": "In an embodiment, AntiOxCINs iron (II) chelating properties were evaluated by the ferrozine assay using ethylenediaminetetracetic acid (EDTA) as reference.\nIn an embodiment, AntiOxCINs iron chelating properties were evaluated by the spectrophotometric ferrozine method performed in a multiplate reader (Powerwave XS Microplate Reader) of Bio-Tech instruments.\nIn an embodiment, the AntiOxCINs iron chelating properties were evaluated as follows: in each well, a solution of the test compound (100 μM) and ammonium iron (II) sulphate in ammonium acetate (20 μM) were added, incubated for 10 min and the absorbance was read at 562 nm. Then, a freshly prepared solution of ferrozine (5 mM) was added to each well (96 μM final concentration). After a new incubation at 37° C. for 10 min period, the absorbance of [Fe(ferrozine)3]^2+ complex was measured at 562 nm. Blank wells were run using DMSO instead of the test compounds. EDTA was used as a reference. All compounds were tested at a final concentration of 100 μM. The absorbance of the first reading was subtracted to the final values to abolish any absorbance due to the test compounds. Data are means±SEM of three independent experiments and are expressed as % of Fe(II) chelation (EDTA=100%)."}, "[2]": {"test_system": "rat liver mitochondria (RLM) membranes", "assay": "RLM lipid peroxidation, TBARS assay (FeSO4/H2O2/ascorbate)", "type": "biochemical", "settings": "5 μM pre-incubation, FIG. 4A", "experimental": "In an embodiment, and as an example, AntiOxCINs antioxidant performance, on the protection of lipid peroxidation of RLM membranes was determined. Two different oxidative stressor agents, FeSO4/H2O2/ascorbate and ADP/FeSO4, and two end-points, TBARS production and oxygen-consumption, respectively, have been used. MitoQ was used as reference (FIGS. 4 and 5).\nIn an embodiment, the evaluation of AntiOxCINs functional mitochondrial toxicity profile was performed in rat liver mitochondria (RLM). RLM were prepared by tissue homogenization followed by differential centrifugations in ice-cold buffer containing 250 mM sucrose, 10 mM HEPES (pH 7.4), 1 mM EGTA, and 0.1% fat-free bovine serum albumin. […] The protein concentration was determined by the biuret assay using BSA as a standard.\nIn an embodiment, the effect of AntiOxCINs on RLM lipid peroxidation was measured by thiobarbituric acid reactive species (TBARS) assay as follows: RLM (2 mg protein/ml) were incubated in 0.8 mL medium containing 100 mM KCl, 10 mM Tris-HCl and pH 7.6, at 37° C., supplemented with 5 mM glutamate/2.5 mM malate as substrate. […] The fluorescence of aliquots (250 μL) of the organic layer was analyzed in a plate reader (λEx=515 nm; λEm=553 nm) for TBARS. […] Data are means±SEM of three independent experiments and are expressed as % of control (control=100%)."}, "[3]": {"test_system": "rat liver mitochondria (RLM)", "assay": "Mitochondrial respiration of isolated RLM (Clark-type oxygen electrode)", "type": "biochemical", "experimental": "(§1) In an embodiment, and as an example, AntiOxCINs and MitoQ toxicity effects on the mitochondrial bioenergetics, namely on RLM ΔΨ and mitochondrial respiration parameters, were measured. The […] represents the main component of the electrochemical gradient generated by mitochondrial respiration and accounts for more than 90% of the total available energy. For mitochondrial respiration assays, glutamate/malate (for complex I) and succinate (for complex II) were used as substrates. In addition, the mitochondrial oxidative phosphorylation coupling index, known as respiratory control ratio (RCR, state 3/state 4 respiration) and ADP/O index (the coupling between ATP synthesis and oxygen consumption) were also calculated. AntiOxCINs and MitoQ were tested at antioxidant-relevant concentrations, with 10 μM being the highest concentration.\n(§2) In an embodiment, the evaluation of AntiOxCINs functional mitochondrial toxicity profile was performed in rat liver mitochondria (RLM). […] The protein concentration was determined by the biuret assay using BSA as a standard.\nIn an embodiment, the evaluation of AntiOxCINs effect on mitochondrial respiration was performed as follows: the respiration of isolated RLM was evaluated polarographically with a Clark-type oxygen electrode, connected to a suitable recorder in a 1 mL thermostated water-jacketed chamber with magnetic stirring, at 37° C.^1. […] Increasing concentrations of AntiOxCINs (2.5-10 μM) were added to the reaction medium containing respiratory substrates glutamate/malate (10 mM and 5 mM respectively) or succinate (5 mM) and RLM (1 mg) and allowed to incubate for a 5 min period prior to the assay. State 2 was considered as the respiration during the 5 min incubation time with AntiOxCINs. […] State 4 was determined after ADP phosphorylation finished. Subsequent addition of oligomycin (2 μg/ml) inhibited ATP-synthase and originated the oligomycin-inhibition respiration state. Finally, 1 μM FCCP was added to induce uncoupled respiration."}, "[4]": {"test_system": "rat liver mitochondria (RLM)", "assay": "Mitochondrial transmembrane electric potential (ΔΨ) of RLM, safranine fluorescence", "type": "biochemical", "experimental": "as §1, §2\nThen, 1 μM FCCP was added at the end of all experiments to depolarize mitochondria. ΔΨ was calculated using a calibration curve obtained when RLM were incubated in a K^+-free reaction medium containing 200 mM sucrose, 1 mM NaH2PO4, 10 mM Tris (pH 7.4) and 10 μM EGTA, supplemented with 0.4 μg valinomicin. […] “Repolarization” corresponded to the recovery of membrane potential after the complete phosphorylation of ADP added. Lag phase reflected the time required to phosphorylate the added ADP. […] Data are means±SEM of five independent experiments."}, "[5]": {"test_system": "mitochondrial permeability transition pore (mPTP) of RLM", "assay": "Mitochondrial permeability transition pore (mPTP) opening, mitochondrial swelling", "type": "biochemical, rat", "settings": "2.5, 5 and 10 μM, pre-incubated 5 min before calcium, FIG. 7A-C", "experimental": "In an embodiment, the AntiOxCINs effects on mitochondrial permeability transition pore (mPTP) opening were evaluated. In general, less lipophilic AntiOxCINs had no effect on mPTP opening for all tested concentrations (FIG. 7A-C).\nIn an embodiment, the evaluation of AntiOxCINs functional mitochondrial toxicity profile was performed in rat liver mitochondria (RLM). RLM were prepared by tissue homogenization followed by differential centrifugations in ice-cold buffer containing 250 mM sucrose, 10 mM HEPES (pH 7.4), 1 mM EGTA, and 0.1% fat-free bovine serum albumin. After obtaining a crude mitochondrial preparation, pellets were washed twice and resuspended in washing buffer (250 mM sucrose and 10 mM HEPES, pH 7.4). The protein concentration was determined by the biuret assay using BSA as a standard.\nIn an embodiment, the effect of AntiOxCINs on mitochondrial permeability transition pore opening were measured as follows: mitochondrial swelling was estimated by measuring the alterations of light scattered from a mitochondrial suspension, as monitored spectrophotometrically at 540 nm. Increasing concentrations of AntiOxCINs (2.5-10 μM) were added to the reaction medium (200 mM sucrose, 1 mM KH2PO4, 10 mM Tris (pH 7.4), 5 mM succinate and 10 μM EGTA supplemented with 1.5 μM rotenone), in the presence of RLM (1 mg), and allowed to incubate for a 5 min period before the assay. The experiments were initiated by the addition of a suitable concentration of Ca^2+ (15-50 μM), titrated every day. […] The reaction was stirred continuously and the temperature maintained at 37° C. Data are means±SEM of three independent experiments and are expressed as Aabsorbance at 540 nm."}}}
{"compound": "O=C(O)CN(CCN(CC(=O)O)CC(=O)O)CC(=O)O", "note": "[EDTA, ethylenediaminetetracetic acid, reference compound]", "values": [{"measurement": "iron (II) chelation", "setting": "[1]", "value": "able to chelate all the iron in solution"}]}
{"compound": "COC1=C(OC)C(=O)C(CCCCCCCCCC[P+](c2ccccc2)(c2ccccc2)c2ccccc2)=C(C)C1=O.CS(=O)(=O)[O-]", "note": "[MitoQ, [10-(4,5-dimethoxy-2-methyl-3,6-dioxo-1,4-cyclohexadien-1-yl)decyl]triphenylphosphonium methanesulfonate, reference compound]", "values": [{"measurement": "iron (II) chelation", "setting": "[1]", "value": "not shared by MitoQ"}, {"measurement": "prevention of mitochondria lipid peroxidation (TBARS levels)", "setting": "[2]", "value": "effectively inhibited lipid peroxidation"}, {"measurement": "toxicity on the mitochondrial bioenergetic apparatus of RLM", "setting": "[3]; 2.5 μM, FIG. 6A and Table 2", "value": "caused toxicity"}, {"measurement": "effect on respiratory states", "setting": "[3]; concentrations up to 5 μM, glutamate/malate, FIG. 6A", "value": "increase on state 2, state 4 and oligomycin-inhibited respiration and a decrease on state 3 and FCCP-uncoupled respiration"}, {"measurement": "ADP/O", "setting": "[3]; glutamate/malate, 2.5 μM", "value": "2.2 ± 0.1"}, {"measurement": "RCR (respiratory control ratio, state 3/state 4)", "setting": "[3]; glutamate/malate, 2.5 μM", "value": "4.2 ± 0.6"}, {"measurement": "ADP/O", "setting": "[3]; glutamate/malate, 5 μM", "value": "1.9 ± 0.1"}, {"measurement": "RCR (respiratory control ratio, state 3/state 4)", "setting": "[3]; glutamate/malate, 5 μM", "value": "2.7 ± 0.3"}, {"measurement": "ADP/O", "setting": "[3]; glutamate/malate, 10 μM", "value": "2.0 ± 0.2"}, {"measurement": "RCR (respiratory control ratio, state 3/state 4)", "setting": "[3]; glutamate/malate, 10 μM", "value": "1.3 ± 0.1"}, {"measurement": "coupling of RLM", "setting": "[3]; succinate, highest concentration tested, FIG. 6A", "value": "completely uncoupled"}, {"measurement": "ADP/O", "setting": "[3]; succinate, 2.5 μM", "value": "1.3 ± 0.1"}, {"measurement": "RCR (respiratory control ratio, state 3/state 4)", "setting": "[3]; succinate, 2.5 μM", "value": "2.6 ± 0.2"}, {"measurement": "ADP/O", "setting": "[3]; succinate, 5 μM", "value": "1.3 ± 0.1"}, {"measurement": "RCR (respiratory control ratio, state 3/state 4)", "setting": "[3]; succinate, 5 μM", "value": "2.4 ± 0.2"}, {"measurement": "repolarization after ADP-induced depolarization", "setting": "[4]; 10 μM", "value": "no repolarization occurred"}, {"measurement": "ADP-induced depolarization (ΔΨ in - mV)", "setting": "[4]; glutamate/malate, 2.5 μM", "value": "173.0 ± 9.3", "unit": "mV"}, {"measurement": "Lag Phase", "setting": "[4]; glutamate/malate, 2.5 μM", "value": "86.5 ± 5.6", "unit": "s"}, {"measurement": "Maximum potential (ΔΨ in - mV)", "setting": "[4]; glutamate/malate, 2.5 μM", "value": "195.7 ± 10.8", "unit": "mV"}, {"measurement": "Repolarization Potential (ΔΨ in - mV)", "setting": "[4]; glutamate/malate, 2.5 μM", "value": "191.1 ± 11.7", "unit": "mV"}, {"measurement": "ADP-induced depolarization (ΔΨ in - mV)", "setting": "[4]; glutamate/malate, 5 μM", "value": "173.5 ± 8.9^ mV"}, {"measurement": "Lag Phase", "setting": "[4]; glutamate/malate, 5 μM", "value": "84.5 ± 7.1", "unit": "s"}, {"measurement": "Maximum potential (ΔΨ in - mV)", "setting": "[4]; glutamate/malate, 5 μM", "value": "188.3 ± 10.6", "unit": "mV"}, {"measurement": "Repolarization Potential (ΔΨ in - mV)", "setting": "[4]; glutamate/malate, 5 μM", "value": "185.0 ± 9.4", "unit": "mV"}, {"measurement": "Maximum potential (ΔΨ in - mV)", "setting": "[4]; glutamate/malate, 10 μM", "value": "113.9 ± 10.2", "unit": "mV"}, {"measurement": "ADP-induced depolarization (ΔΨ in - mV)", "setting": "[4]; succinate, 2.5 μM", "value": "162.1 ± 6.0", "unit": "mV"}, {"measurement": "Lag Phase", "setting": "[4]; succinate, 2.5 μM", "value": "104.8 ± 9.9", "unit": "s"}, {"measurement": "Maximum potential (ΔΨ in - mV)", "setting": "[4]; succinate, 2.5 μM", "value": "181.6 ± 8.3", "unit": "mV"}, {"measurement": "Repolarization Potential (ΔΨ in - mV)", "setting": "[4]; succinate, 2.5 μM", "value": "182.7 ± 9.1", "unit": "mV"}, {"measurement": "ADP-induced depolarization (ΔΨ in - mV)", "setting": "[4]; succinate, 5 μM", "value": "157.0 ± 6.4^ mV"}, {"measurement": "Lag Phase", "setting": "[4]; succinate, 5 μM", "value": "92.6 ± 19.4", "unit": "s"}, {"measurement": "Maximum potential (ΔΨ in - mV)", "setting": "[4]; succinate, 5 μM", "value": "170.2 ± 8.1", "unit": "mV"}, {"measurement": "Repolarization Potential (ΔΨ in - mV)", "setting": "[4]; succinate, 5 μM", "value": "170.8 ± 8.7", "unit": "mV"}, {"measurement": "Maximum potential (ΔΨ in - mV)", "setting": "[4]; succinate, 10 μM", "value": "108.9 ± 3.8", "unit": "mV"}, {"measurement": "effect on calcium-dependent mPTP opening", "setting": "[5]", "value": "no effect in mPTP induction"}]}
